Results reported in patent publication US12201594B2, “Methods and compositions for treatment of pain using capsaicin” (Centrexion Therapeutics Corporation, priority 2017, dated 2025).

What was measured:
[1] = system: osteoarthritic knee joint pain; experiment: Patient-specific Functional Scale (PSFS), Example 1; format: in vivo, human
Method: (§1) Human patients aged 45-80 years with chronic knee osteoarthritis, stable moderate to severe pain, and intolerability to analgesics were randomized to receive a single intra-articular injection of placebo into the osteoarthritic knee, a single intra-articular injection of a 0.5 mg dose of capsaicin into the osteoarthritic knee, or a single intra-articular injection of a 1.0 mg dose of capsaicin into the osteoarthritic knee.
(§2) The test article (i.e., placebo or capsaicin) was administered according to the following procedure: (i) applying for a duration of about 15 minutes a cooling article to an exterior surface of a human patient's knee presenting with osteoarthritic knee joint pain, wherein the cooling article was a Breg cooling wrap cooled by circulating ice-cold water, (ii) administering by injection into the intra-articular space of the joint of the knee a 15 mL aliquot of a 2% w/w lidocaine solution in saline, (iii) applying for a duration of about 30 minutes a cooling article to an exterior surface of the knee, wherein the cooling article was a Breg cooling wrap cooled by circulating ice-cold water, (iv) administering by injection into the intra-articular space of the joint of the knee a 4 mL aliquot of a solution containing water, polyethylene glycol having a number-average molecular weight of about 300 g/mol, and for patients receiving capsaicin a dose of capsaicin in an amount of 0.5 mg or 1.0 mg, and (v) applying a cooling article to an exterior surface of the knee for a duration of at least about 30 minutes (and up to 60 minutes upon patient request), wherein the cooling article was a Breg cooling wrap cooled by circulating ice-cold water.
(§3) Patients completed Patient Global Impression of Change (PGIC; change vs baseline in index knee on 7-point scale; 1=very much improved; 7=very much worse, with scores of 1 or 2 indicating significant improvement) and Patient-specific Functional Scale (PSFS; rate≤3 important activities difficult to perform due to index knee pain on 0-10 scale; 0-able to perform; 10=unable to perform) at scheduled visits. Odds ratios for PGIC scores were calculated with chi-square tests. Changes in Western Ontario and McMaster Universities Osteoarthritis Index (WOMAC) B stiffness subscale and WOMAC C function subscale through week 24 were also assessed. PSFS, WOMAC B, and WOMAC C scores were evaluated using a mixed model for repeated measures. Statistical tests were 2-sided (alpha, P=0.10).

[2] = system: osteoarthritic knee joint pain; experiment: WOMAC B stiffness subscale and WOMAC C function subscale, Example 1; format: in vivo, human; details: 1.0 mg dose; through week 16
Method: Human patients aged 45-80 years with chronic knee osteoarthritis, stable moderate to severe pain, and intolerability to analgesics were randomized to receive a single intra-articular injection of placebo into the osteoarthritic knee, a single intra-articular injection of a 0.5 mg dose of capsaicin into the osteoarthritic knee, or a single intra-articular injection of a 1.0 mg dose of capsaicin into the osteoarthritic knee. […]
as §3, with “Statistical tests were 2-sided (alpha, P=0.10).” left out

[3] = system: human patients experiencing osteoarthritic knee joint pain; experiment: Safety assessments (TEAEs, SAEs, procedural pain ratings) after single intra-articular injection of capsaicin with cooling and lidocaine, Example 1; format: in vivo; details: for All TEAEs / Arthralgia / Hepatic enzyme increased / Influenza / Joint effusion / Nasopharyngitis / Upper respiratory tract infection: through 24 weeks
Method: as §2, with “Human patients experiencing osteoarthritic knee joint pain received either placebo, a 0.5 mg intra-articular injection of capsaicin into the osteoarthritic knee joint,” for “The test article (i.e., placebo”, “a 1.0 mg intra-articular injection of capsaicin into the osteoarthritic knee joint. Transient burning sensation due to administration of capsaicin” for “capsaicin)”, “attenuated by administering capsaicin” for “administered”, “60)” for “60”, “water. Further description of experimental procedures and results are provided below:” for “water.”
as §1, §2
Safety assessments included treatment-emergent adverse events (TEAEs), serious AEs (SAEs), laboratory abnormalities, and procedural pain ratings (none, mild, moderate, moderately severe, severe). The procedure pain ratings characterize the extent of transient burning sensation experienced by patients due to administration of capsaicin.

[4] = system: osteoarthritic knee joint pain; experiment: Patient Global Impression of Change (PGIC), Example 1; format: in vivo, human
Method: as §1, §2, §3

[5] = system: pain due to an intermetatarsal neuroma; experiment: Average walking pain due to intermetatarsal neuroma (NPRS) after two doses of trans-capsaicin, Example 3; format: in vivo, human; details: 200 μg
Method: Twenty-seven adult, human patients experiencing pain due to an intermetatarsal neuroma were treated by administering a first dose of trans-capsaicin (200 μg of trans-capsaicin) and then, after at least 11 weeks, administered a second dose of trans-capsaicin (200 μg of trans-capsaicin). Patients rated their average walking pain due to the intermetatarsal neuroma on a Numeric Pain Rating Scale (NPRS), where pain is characterized by the patient on a scale of zero to ten (with zero being “no pain”, and ten being “worst possible pain”). Patients rated their average walking pain due to the intermetatarsal neuroma on (i) just prior to receiving the injection of trans-capsaicin and (ii) four (4) weeks after receiving each injection of trans-capsaicin. Patients reported a reduction in average walking pain due to the intermetatarsal neuroma when measured at four weeks after injection of trans-capsaicin for each administration of trans-capsaicin. […]
Pain due to the intermetatarsal neuroma was evaluated by having patients rate their average walking pain due to the intermetatarsal neuroma on a Numeric Pain Rating Scale (NPRS), where pain is characterized by the patient on a scale of zero to ten (with zero being “no pain”, and ten being “worst possible pain”). […]

[6] = 2 hours after injection, all groups (capsaicin or placebo)
[7] = either 0.5 mg or 1.0 dose (n = 105)

For `COc1cc(CNC(=O)CCCCC=CC(C)C)ccc1O` [Capsaicin, N-[(4-hydroxy-3-methoxyphenyl)methyl]-8-methylnon-6-enamide], the “PSFS: LSMD versus Placebo” value ([1]; 0.5 mg dose, week 4) was 0.01, the “PSFS: LSMD versus Placebo” value ([1]; 0.5 mg dose, week 8) was −0.03 and the “PSFS: LSMD versus Placebo” value ([1]; 0.5 mg dose, week 12) was −0.4. The “PSFS: LSMD versus Placebo” value ([1]; 0.5 mg dose, week 16) was −0.5, the “PSFS: LSMD versus Placebo” value ([1]; 0.5 mg dose, week 24) was −0.05 and the “PSFS: LSMD versus Placebo” value ([1]; 1.0 mg dose, week 4) was −1.4. For the same molecule, the “PSFS: LSMD versus Placebo” value ([1]; 1.0 mg dose, week 8) was −0.9, the “PSFS: LSMD versus Placebo” value ([1]; 1.0 mg dose, week 12) was −1.1 and the “PSFS: LSMD versus Placebo” value ([1]; 1.0 mg dose, week 16) was −0.9. The “PSFS: LSMD versus Placebo” value ([1]; 1.0 mg dose, week 24) was −0.5, the “PSFS: ability to perform activities versus placebo” value ([1]; 1.0 mg dose, weeks 4-16) was “significantly improved” and the “WOMAC B score, LSMD versus placebo” value [2] was −2.1. For the same molecule, the “WOMAC C score, LSMD versus placebo” value [2] was −14.8, the “All TEAEs” value ([3]; 0.5 mg dose IA (n = 34)) was 16 (47) n (%) and the Arthralgia ([3]; 0.5 mg dose IA (n = 34)) was 3 (8.8) n (%). For the same molecule, the Hepatic enzyme increased ([3]; 0.5 mg dose IA (n = 34)) was 2 (5.9) n (%), the Influenza ([3]; 0.5 mg dose IA (n = 34)) was 1 (2.9) n (%) and the Joint effusion ([3]; 0.5 mg dose IA (n = 34)) was 3 (8.8) n (%). The Nasopharyngitis ([3]; 0.5 mg dose IA (n = 34)) was 1 (2.9) n (%), the “Upper respiratory tract infection” value ([3]; 0.5 mg dose IA (n = 34)) was 2 (5.9) n (%) and the “All TEAEs” value ([3]; 1.0 mg dose IA (n = 71)) was 21 (30) n (%). The Arthralgia ([3]; 1.0 mg dose IA (n = 71)) was 5 (7.0) n (%), the Hepatic enzyme increased ([3]; 1.0 mg dose IA (n = 71)) was 1 (1.4) n (%) and the Influenza ([3]; 1.0 mg dose IA (n = 71)) was 2 (2.8) n (%). The Joint effusion ([3]; 1.0 mg dose IA (n = 71)) was 0 n (%), the Nasopharyngitis ([3]; 1.0 mg dose IA (n = 71)) was 2 (2.8) n (%) and the “Upper respiratory tract infection” value ([3]; 1.0 mg dose IA (n = 71)) was 3 (4.2) n (%). For the same molecule, the “patients reporting mild pain (procedural pain rating)” value [3, 6] was 39%, the “patients reporting no pain (procedural pain rating)” value [3, 6] was 50% and the “Incidence of TEAEs” value ([3]; capsaicin 0.5 mg dose) was 47%. The “TEAEs mild in severity” value ([3]; capsaicin 0.5 mg dose) was 29%, the “TEAEs moderate in severity” value ([3]; capsaicin 0.5 mg dose) was 18% and the SAE ([3]; capsaicin 0.5 mg dose group, not considered treatment related) was “One SAE (shoulder pain from osteoarthritis)”. The “Incidence of TEAEs” value ([3]; capsaicin 1.0 mg dose) was 30%, the “TEAEs mild in severity” value ([3]; capsaicin 1.0 mg dose) was 20% and the “TEAEs moderate in severity” value ([3]; capsaicin 1.0 mg dose) was 9.9%. The “arthralgia (TEAE)” value ([3]; capsaicin 1.0 mg dose) was 7.0%, the “arthralgia (TEAE)” value ([3]; capsaicin regardless of dose) was 7.6% and the “upper respiratory tract infection (TEAE)” value ([3]; capsaicin regardless of dose) was 4.8%. For the same molecule, the “All TEAEs” value [3, 7] was 37 (35) n (%), the Arthralgia [3, 7] was 8 (7.6) n (%) and the Hepatic enzyme increased [3, 7] was 3 (2.9) n (%). For the same molecule, the Influenza [3, 7] was 3 (2.9) n (%), the Joint effusion [3, 7] was 3 (2.9) n (%) and the Nasopharyngitis [3, 7] was 3 (2.9) n (%). The “Upper respiratory tract infection” value [3, 7] was 5 (4.8) n (%), the “tolerability / safety profile” value ([3]; single injection, 1.0 mg dose, up to 24 weeks, comparable to placebo) was “well tolerated” and the “PGIC: Odds Ratio vs Placebo” value ([4]; 0.5 mg dose, week 4) was 1.76. For the same molecule, the “PGIC: proportion of patients reporting significant improvement in the index knee” value ([4]; 0.5 mg dose, week 4) was 58%, the “PGIC: Odds Ratio vs Placebo” value ([4]; 0.5 mg dose, week 8) was 1.89 and the “PGIC: Odds Ratio vs Placebo” value ([4]; 0.5 mg dose, week 12) was 2.75. For the same molecule, the “PGIC: Odds Ratio vs Placebo” value ([4]; 0.5 mg dose, week 16) was 2.37, the “PGIC: Odds Ratio vs Placebo” value ([4]; 0.5 mg dose, week 24) was 1.68 and the “PGIC: Odds Ratio vs Placebo” value ([4]; 1.0 mg dose, week 4) was 2.34. For the same molecule, the “PGIC: proportion of patients reporting significant improvement in the index knee” value ([4]; 1.0 mg dose, week 4) was 64%, the “PGIC: Odds Ratio vs Placebo” value ([4]; 1.0 mg dose, week 8) was 2.50 and the “PGIC: Odds Ratio vs Placebo” value ([4]; 1.0 mg dose, week 12) was 2.40. The “PGIC: Odds Ratio vs Placebo” value ([4]; 1.0 mg dose, week 16) was 1.85, the “PGIC: Odds Ratio vs Placebo” value ([4]; 1.0 mg dose, week 24) was 1.64 and the “PGIC: likelihood of significant improvement compared with placebo” value ([4]; 1.0 mg dose, weeks 4, 8 and 12) was “greater than two-fold likelihood”.

With `COc1cc(CNC(=O)CCCCC=CC(C)C)ccc1O` [trans-capsaicin, N-[(4-hydroxy-3-methoxyphenyl)methyl]-8-methylnon-6-enamide] the “reduction in average walking pain due to the intermetatarsal neuroma (NPRS)” value ([5]; four weeks after first dose, vs prior to first dose) was 1.6 point and the “reduction in average walking pain due to the intermetatarsal neuroma (NPRS)” value ([5]; four weeks after second dose, vs just prior to second dose) was 2.3 point.
